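Interpolation was linear, between the two tested concentrations surrounding the appropriate level; five concentrations were tested over 48 hours in 96-well plates. GI50 marks 50% less growth. The concentration for full growth arrest is given as TGI.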
How the values were obtained:
Experiment in all cases: growth of human tumour cells (NCI), 48 h
[1] = test system: SK-MEL-5 melanoma
[2] = test system: U251 CNS
[3] = test system: 786-0 renal
[4] = test system: T-47D breast
[5] = test system: IGROV1 ovarian
[6] = test system: MOLT-4 leukemia
[7] = test system: UACC-62 melanoma
[8] = test system: HCT-116 colon
[9] = test system: HT29 colon
[10] = test system: HCC-2998 colon
[11] = test system: HL-60(TB) leukemia
[12] = test system: BT-549 breast
[13] = test system: KM12 colon
[14] = test system: MCF7 breast
[15] = test system: SF-295 CNS
[16] = test system: NCI/ADR-RES ovarian
[17] = test system: ACHN renal
[18] = test system: OVCAR-8 ovarian
[19] = test system: UO-31 renal
[20] = test system: SK-OV-3 ovarian
[21] = test system: SF-268 CNS
[22] = test system: MDA-MB-231 breast
[23] = test system: RXF 393 renal
[24] = test system: SR leukemia
[25] = test system: PC-3 prostate
[26] = test system: NCI-H226 lung
[27] = test system: SNB-75 CNS
[28] = test system: OVCAR-3 ovarian
[29] = test system: SN12C renal
[30] = test system: SNB-19 CNS
[31] = test system: A549 NSCLC
[32] = test system: OVCAR-5 ovarian
[33] = test system: SF-539 CNS
[34] = test system: HOP-92 NSCLC
[35] = test system: NCI-H522 lung
[36] = test system: HCT-15 colon
[37] = test system: TK-10 renal
[38] = test system: M14 melanoma
[39] = test system: MALME-3M melanoma
[40] = test system: MDA-MB-468 breast
[41] = test system: LOX IMVI melanoma
[42] = test system: SK-MEL-2 melanoma
[43] = test system: HS 578T breast
[44] = test system: NCI-H460 lung
[45] = test system: OVCAR-4 ovarian
[46] = test system: CAKI-1 renal
[47] = test system: SW-620 colon
[48] = test system: UACC-257 melanoma
[49] = test system: K-562 leukemia
[50] = test system: CCRF-CEM leukemia
[51] = test system: RPMI-8226 leukemia
[52] = test system: SK-MEL-28 melanoma
[53] = test system: COLO 205 colon
[54] = test system: NCI-H23 lung
[55] = test system: DU-145 prostate
[56] = test system: A498 renal
[57] = test system: MDA-MB-435
[58] = test system: HOP-62 NSCLC
[59] = test system: EKVX NSCLC

## COc1cc2c(c(OC)c1OC)C(=O)CC(c1cccc(NC(=O)c3cc([N+](=O)[O-])ccc3Cl)c1)O2 (stereo not drawn)
[1]
  GI50: 8.99 µM
  TGI: 73.3 µM
[2]
  GI50: 4.32 µM
  TGI: 25 µM
[3]
  GI50: 17.5 µM
  TGI: > 100 µM
[4]
  GI50: 3.74 µM
  TGI: 58.7 µM
[5]
  GI50: 11.3 µM
  TGI: > 100 µM
[6]
  GI50: 2560 nM
  TGI: > 100 µM
[7]
  GI50: 4.17 µM
  TGI: 45.3 µM
[8]
  GI50: 1690 nM
  TGI: 3.64 µM
[9]
  GI50: 7.21 µM
  TGI: > 100 µM
[10]
  GI50: 13.7 µM
  TGI: > 100 µM
[11]
  GI50: 4.91 µM
  TGI: 57.7 µM
[12]
  GI50: 2270 nM
  TGI: 16.8 µM
[13]
  GI50: 3.86 µM
  TGI: 33.8 µM
[14]
  GI50: 2560 nM
  TGI: > 100 µM
[15]
  GI50: 7.61 µM
  TGI: > 100 µM
[16]
  GI50: 4.99 µM
  TGI: 29.5 µM
[17]
  GI50: 5 µM
  TGI: 27.8 µM
[18]
  GI50: 3.47 µM
  TGI: 20.5 µM
[19]
  GI50: 4.78 µM
  TGI: > 100 µM
[20]
  GI50: 38.8 µM
  TGI: > 100 µM
[21]
  GI50: 6.92 µM
  TGI: > 100 µM
[22]
  GI50: 3.96 µM
  TGI: 19.1 µM
[23]
  GI50: 4.02 µM
  TGI: 34.4 µM
[24]
  GI50: 2390 nM
  TGI: > 100 µM
[25]
  GI50: 7.27 µM
  TGI: > 100 µM
[26]
  GI50: 3.37 µM
  TGI: 17.5 µM
[27]
  GI50: 2530 nM
  TGI: 26.3 µM
[28]
  GI50: 5.12 µM
  TGI: > 100 µM
[29]
  GI50: 2740 nM
  TGI: 14.6 µM
[30]
  GI50: 18.6 µM
  TGI: > 100 µM
[31]
  GI50: 6.66 µM
  TGI: > 100 µM
[32]
  GI50: 22.4 µM
  TGI: > 100 µM
[33]
  GI50: 3.54 µM
  TGI: 18.9 µM
[34]
  GI50: 2730 nM
  TGI: 17.8 µM
[35]
  GI50: 3.04 µM
  TGI: 15.5 µM
[36]
  GI50: 2040 nM
  TGI: 6.08 µM
[37]
  GI50: 33.6 µM
  TGI: > 100 µM
[38]
  GI50: 3.17 µM
  TGI: 15.9 µM
[39]
  GI50: 18.2 µM
  TGI: > 100 µM
[40]
  GI50: 2300 nM
  TGI: 5.92 µM
[41]
  GI50: 1590 nM
  TGI: 3.56 µM
[42]
  GI50: 10.8 µM
  TGI: 40.1 µM
[43]
  GI50: 3.98 µM
  TGI: > 100 µM
[44]
  GI50: 8.14 µM
  TGI: 82.9 µM
[45]
  GI50: 26.6 µM
  TGI: > 100 µM
[46]
  GI50: 3.22 µM
  TGI: > 100 µM
[47]
  GI50: 2140 nM
  TGI: 5.61 µM
[48]
  GI50: 6.27 µM
  TGI: > 100 µM
[49]
  GI50: 4.42 µM
  TGI: > 100 µM
[50]
  GI50: 2440 nM
  TGI: 7.84 µM
[51]
  GI50: 3.14 µM
  TGI: 38.1 µM
[52]
  GI50: 15.5 µM
  TGI: > 100 µM
[53]
  GI50: 5.49 µM
  TGI: 21 µM
[54]
  GI50: 5.34 µM
  TGI: 26.9 µM
[55]
  GI50: 5.48 µM
  TGI: > 100 µM
[56]
  GI50: 45 µM
  TGI: > 100 µM
[57]
  GI50: 3.51 µM
  TGI: 24.8 µM
[58]
  GI50: 60.9 µM
  TGI: > 100 µM
[59]
  GI50: 21.9 µM
  TGI: > 100 µM

Reference: PubChem BioAssay (NCI)
